{"source": "patent US4436799A", "about": "“Photographic products and processes employing novel nondiffusible magenta dye-releasing compounds and precursors thereof” (priority 1983, dated 1984)", "assay_type_in_all_cases": "physicochemical", "key": {"[1]": {"assay": "Dye diffusion, solution test", "conditions": "pH 13.4, 0.0025 M dye", "source_text": "The released dyes in Table I were also subjected to the conditions of two different dye diffusion tests. One, the \"solution test\" involved dissolving the dye in a viscous composition and transferring it through a receiving element which contains an opaque and reflecting layer in addition to the mordant layer. The other, a \"gel pad test\" involved imbibing the dye from solution into a thick gelatin layer, and then transferring it by direct lamination to the same receiving element which had been preswollen by soaking 5 minutes in a solution of […].\nA transparent poly(ethylene terephthalate) film support coated with\n(3) an overcoat layer of gelatin (4.3).\nThe viscous composition was prepared from 46.2 g potassium hydroxide and 54 g carboxymethylcellulose dissolved in 1200 ml water. […] Measurement of the rate of dye diffusion was commenced at the point at which half of the laminate had passed through the rollers. The appearance of dye on the mordant was measured at λmax as diffuse reflection density vs. time. The reflection density was converted to transmission density by computer with the aid of a mathematical relation derived from a previous calibration. A plot of transmission density, which is proportional to concentration vs. time, was derived; and the value of t-1/2 of dye transfer, the time in seconds required to obtain one-half of the maximum transmission density, calculated."}, "[2]": {"assay": "Spectra of Ni-dye complexes in solution", "conditions": "3:1 dioxane:water, pH 7, excess nickel ion", "source_text": "The receiver was removed from the dye solution, washed in distilled water, placed in a pH 7.0 buffer solution and dried. Transmission spectra obtained on each sample of the mordanted dyes were normalized by computer to a density of 1.0. The characteristic wavelength of the dye, λ1/2 in nm, is the mean of the wavelength limits of the absorption envelope at half the maximum density. The HBW (\"half band width\") in nm is the range or distance between those limits. The dye solution spectrum in 3:1 dioxane:water at pH 7 in the presence of excess nickel ion is also given."}, "[3]": {"assay": "Extinction in solution with Ni2+ (synthesis examples)", "conditions": "3:1 dioxane-pH 6 buffer + Ni^2+", "experimental": "To a solution of 5.5 g (12.1 mmol) Compound E in 200 ml tetrahydrofuran, 100 ml pyridine and 4.8 g (37.2 mmol) N,N-diisopropylethylamine was added 3.0 g (3.17 mmol) 3,6-bis(1-p-t-butylphenylethyl)-2,5-bis(N-n-dodecylchloroformamidomethyl)benzoquinone (see U.S. Pat. No. 4,204,870, Col. 31). After stirring for 1 hour, an additional 2.5 g (2.64 mmol) of the acid chloride is added and the reaction stirred 28 hours at room temperature. The crude reaction mixture was concentrated to ca. 100 ml in vacuo at 40° C. and the residue was partitioned between ethyl acetate and 3 N HCl. The layers were separated, the organic phase washed with 3 N HCl (until washings were acidic), water and saturated sodium chloride solution. After drying (MgSO4) the organic phase was evaporated in vacuo and the residue recrystallized twice from 350-400 ml ethanol. Yield 7.5 g (72 percent) of yellow solid: ε^550 =13.0×10^4 (3:1 dioxane-pH 6 buffer+excess Ni^2+).\nA solution of 5.0 g (31.4 mmol) quinoline-5,8-quinone [T. Urbanski and S. Krzyzanowski, Roczniki Chem., 27, 390 (1953); Chem. Abstr., 49, 1041b (1955)] in 50 ml ethyl alcohol and 100 ml tetrahydrofuran was chilled to <5° C. Concentrated HCl (1 ml) and a cold slurry of 10.0 g (31.8 mmol) 3-chloro-5-(m-hydroxyphenylsulfamoyl)-7-pyridylhydrazine in 100 ml ethyl alcohol/0.5 ml concentrated HCl were added in that order. […]"}, "[4]": {"assay": "Light stability (percent fade after HID xenon arc irradiation)", "conditions": "10 days HID 6000 W xenon arc, 50,000 lux, Wratten 2B filter, approx. 38° C., low humidity, pH 7", "source_text": "An alternative receiving element was used with the premetallized dye-complexes. It comprised a poly(ethylene terephthalate) film support having thereon a layer of gelatin (1.1 g/m^2) and a mordant layer of poly(styrene-co-1-vinylimidazole-co-3-benzyl-1-vinylimidazolium chloride (50:40:10) (4.5 g/m^2) and gelatin (2.2 g/m^2).\nThe above receiving elements at pH 7 were then subjected to 10 days irradiation by a high intensity daylight (HID), 6000 W Xenon arc lamp, the sample receiving 50,000 lux through a Wratten 2B (ultraviolet) filter at approximately 38° C. and low humidity. The percent fade represents the loss in density at λmax after irradiation."}, "[5]": {"assay": "Transmission spectra of Ni-dye complexes on mordanted receiving element (Example 1)", "conditions": "nickel sulfate/gelatin + poly(4-vinylpyridine)/gelatin mordant receiver; pH 7.0 buffer; normalized to density 1.0"}}, "data": [{"smiles": "O=S(=O)(Nc1cccc(O)c1)c1cnc(N=Nc2ccc(O)c3cccnc23)c(Cl)c1", "note": "[Compound E, 8-[3-Chloro-5-(m-hydroxyphenylsulfamoyl)-2-pyridylazo]-5-quinolinol]", "values": [{"measurement": "Dye diffusion t1/2, Soln.", "setting": "[1]", "value": 39, "unit": "s"}, {"measurement": "Solution λ1/2 of Ni-dye complex", "setting": "[2]", "value": 544, "unit": "nm"}, {"measurement": "Solution HBW of Ni-dye complex", "setting": "[2]; half band width", "value": 65, "unit": "nm"}, {"measurement": "ε^550", "setting": "[3]", "value": "6.6×10^4"}, {"measurement": "% Fade (loss in density at λmax)", "setting": "[4]", "value": 1, "unit": "%"}, {"measurement": "Mordant HBW of Ni-dye complex", "setting": "[5]", "value": 70, "unit": "nm"}, {"measurement": "Mordant λ1/2 of Ni-dye complex", "setting": "[5]", "value": 550, "unit": "nm"}]}]}
